≈ marks a conversion by molar mass, not a printed value. Like-named read-outs stand apart in the source and are kept apart here.
Columns and labels:
Format in all cases: cell-based
[1] = tested on: P. rettgeri CAP; test: Broth microdilution MIC, reference strains; conditions: Providencia rettgeri; P. rettgeri (CAP in Table 1); read-out: MIC (growth inhibition, microdilution method)
Description: (§1) All clinical isolates tested were from The North American Urinary Tract Infection Collaborative Alliance (NAUTICA) which is a UTI surveillance study involving 40 medical centres (30 from the US and 10 from Canada). Each centre submitted up to 50 consecutive outpatient midstream urine isolates. All isolates were deemed significant urinary tract pathogens by individual laboratory criteria and identified to the species level by each laboratory's existing protocol. Isolates were transported to the coordinating laboratory (Health Sciences Centre, Winnipeg, Canada) on charcoal swabs. Only one isolate per patient was accepted. Upon receipt, isolates were cultured by the coordinating laboratory, stocked in skim milk, and stored at −80° C. awaiting reference antibiotic susceptibility testing. Elementary demographic information was also compiled for each isolate. Isolates were selected randomly from the above pool to represent 18 different species of Enterobacteriaceae and non-Enterobacteriaceae. An average of 5 strains of each species were tested for a total of 93 organisms. In addition, 23 reference (ATCC) [both gram negative and gram positive] strains were tested.
(§2) Susceptibilities to the compounds were determined using the National Committee for Clinical Laboratory Standards (NCCLS) M7-A6 broth microdilution method. […] DMSO controls were incorporated into the panel to mimic the quantity of DMSO used in dissolving some of the compounds at the higher concentrations. Each final panel well volume was 100 μl with a bacterial inoculum of 5×10^5 colony forming units (CFU)/ml. Panels were read following 16 to 20 hours of incubation at 35° C. in ambient air. The minimum inhibitory concentration (MIC) was defined as the lowest concentration of antimicrobial inhibiting visible growth. Quality control (QC) was performed using four ATCC QC organisms that were run with every batch set up to insure reproducibility.

[2] = tested on: S. simulans ATCC 27848; test: Broth microdilution MIC, ATCC strains; conditions: Staphylococcus simulans, ATCC27848, read-out: MIC (growth inhibition, microdilution method)
Description: as §1, §2

[3] = tested on: E. coli ATCC 25922; test: Broth microdilution MIC, ATCC strains; conditions: for MIC (growth inhibition, microdilution method): E. coli ATCC 25922; for MIC: Escherichia coli, ATCC25922, E. coli ATCC 25922, read-out: MIC (growth inhibition, microdilution method)
Description: as §1, §2

[4] = tested on: K. pneumoniae ATCC 13883; test: Broth microdilution MIC, ATCC strains; conditions: Klebsiella pneumoniae, ATCC13883; K. pneumoniae ATCC 13883; read-out: MIC (growth inhibition, microdilution method)
Description: as §1, §2

[5] = tested on: MRSA ATCC 33591; test: Broth microdilution MIC, ATCC strains; conditions: Staphylococcus aureus; MRSA ATCC 33591; read-out: MIC (growth inhibition, microdilution method)
Description: as §1, §2

[6] = tested on: E. faecalis ATCC 29212; test: Broth microdilution MIC, ATCC strains; conditions: for MIC: Enterococcus faecalis, read-out: MIC (growth inhibition, microdilution method)
Description: as §1, §2

[7] = tested on: S. maltophilia ATCC 13637; test: Broth microdilution MIC, ATCC strains; conditions: Stenotrophomonas maltophilia, ATCC13637; S. maltophilia ATCC 13637; read-out: MIC (growth inhibition, microdilution method)
Description: as §1, §2

[8] = tested on: S. liquefaciens ATCC 27592; test: Broth microdilution MIC, ATCC strains; conditions: S. liquefaciens ATCC 27592; read-out: MIC (growth inhibition, microdilution method)
Description: as §1, §2

[9] = tested on: S. aureus ATCC 29213; test: Broth microdilution MIC, ATCC strains; conditions: for MIC: Staphylococcus aureus, ATCC29213, S. aureus ATCC 29213, read-out: MIC (growth inhibition, microdilution method)
Description: as §1, §2

[10] = tested on: S. marcescens ATCC 8100; test: Broth microdilution MIC, ATCC strains; conditions: Serratia marcescens, ATCC8100; S. marcescens ATCC 8100; read-out: MIC (growth inhibition, microdilution method)
Description: as §1, §2

[11] = tested on: S. epidermidis ATCC 14990; test: Broth microdilution MIC, ATCC strains; conditions: Staphylococcus epidermidis, ATCC14990; S. epidermidis ATCC 14990; read-out: MIC (growth inhibition, microdilution method)
Description: as §1, §2

[12] = tested on: S. saprophyticus ATCC 15305; test: Broth microdilution MIC, ATCC strains; conditions: Staphylococcus saprophyticus, ATCC15305; S. saprophyticus ATCC 15305; read-out: MIC (growth inhibition, microdilution method)
Description: as §1, §2

[13] = tested on: K. oxytoca ATCC 49131; test: Broth microdilution MIC, ATCC strains; conditions: Klebsiella oxytoca, ATCC49131; K. oxytoca ATCC 49131; read-out: MIC (growth inhibition, microdilution method)
Description: as §1, §2

[14] = tested on: S. liquifaciens clinical isolates; test: Broth microdilution MIC, clinical isolate strains (NAUTICA); conditions: clinical isolates, one table line per isolate; unit assumed
Description: as §1, §2

[15] = tested on: E. aerogenes clinical isolates; test: as above; conditions: clinical isolates, one table line per isolate; unit assumed
Description: as §1, §2

[16] = tested on: C. amalonaticus clinical isolates; test: as above; conditions: clinical isolates, one table line per isolate; unit assumed
Description: as §1, §2

[17] = tested on: S. marcescens clinical isolates; test: as above; conditions: clinical isolates, one table line per isolate; unit assumed
Description: as §1, §2

[18] = tested on: P. mirabilis clinical isolates; test: as above; conditions: clinical isolates, one table line per isolate; unit assumed
Description: as §1, §2

[19] = tested on: S. maltophilia clinical isolates; test: as above; conditions: clinical isolates, one table line per isolate; unit assumed
Description: as §1, §2

[20] = tested on: A. baumanii clinical isolates; test: as above; conditions: clinical isolates, one table line per isolate; unit assumed
Description: as §1, §2

[21] = tested on: M. morganii clinical isolates; test: as above; conditions: clinical isolates, one table line per isolate; unit assumed
Description: as §1, §2

[22] = tested on: K. pneumoniae clinical isolates; test: as above; conditions: clinical isolates, one table line per isolate; unit assumed
Description: as §1, §2

[23] = tested on: P. retgerri clinical isolates; test: as above; conditions: clinical isolates, one table line per isolate; unit assumed
Description: as §1, §2

[24] = tested on: C. koseril clinical isolates; test: as above; conditions: clinical isolates, one table line per isolate; unit assumed
Description: as §1, §2

[25] = tested on: C. freundii clinical isolates; test: as above; conditions: clinical isolates, one table line per isolate; in µg/mL (unit assumed)
Description: as §1, §2

[26] = tested on: B. cepacia clinical isolates; test: as above; conditions: clinical isolates, one table line per isolate; unit assumed
Description: as §1, §2

[27] = tested on: P. stuartii clinical isolates; test: as above; conditions: clinical isolates, one table line per isolate; unit assumed
Description: as §1, §2

[28] = tested on: E. cloacae clinical isolates; test: as above; conditions: clinical isolates, one table line per isolate; unit assumed
Description: as §1, §2

[29] = tested on: K. oxytoca clinical isolates; test: as above; conditions: clinical isolates, one table line per isolate; unit assumed
Description: as §1, §2

[30] = tested on: P. vulgaris clinical isolates; test: as above; conditions: clinical isolates, one table line per isolate; unit assumed
Description: as §1, §2

[31] = tested on: E. coli clinical isolates; test: as above; conditions: clinical isolates, one table line per isolate; unit assumed
Description: as §1, §2

[32] = ATCC29212, E. faecalis ATCC 29212
[33] = ATCC29212, E. faecalis, ATCC number not given

Row | SMILES | MIC [1] | MIC [2] | MIC (growth inhibition, microdilution method) [3] | MIC [3] | MIC [4] | MIC [5] | MIC [6, 32] | MIC [6, 33] | MIC [7] | MIC [8] | MIC [9] | MIC [10] | MIC [11] | MIC [12] | MIC [13] | MIC, S. LIQUEFACIENS [14] | MIC, E. AEROGENES [15] | MIC, C. AMALONATICUS [16] | MIC, S. MARCESCENS [17] | MIC, C. FREUNDII [25] | also measured
1 | O=C(O)c1cc(-c2nn[nH]n2)cs1 [DNM-116, 4-(2H-Tetrazol-5-yl)-thiophene-2-carboxylic acid] | 32 µg/mL (≈ 163 µM) | > 32 µg/mL | 8 µg/mL (≈ 40.8 µM) | 16 µg/mL (≈ 81.6 µM) | 16 µg/mL (≈ 81.6 µM) | > 32 µg/mL | 8 µg/mL (≈ 40.8 µM) | 8 µg/mL (≈ 40.8 µM) | 16 µg/mL (≈ 81.6 µM) | 16 µg/mL (≈ 81.6 µM) | 32 µg/mL (≈ 163 µM) | 16 µg/mL (≈ 81.6 µM) | 16 µg/mL (≈ 81.6 µM) | 16 µg/mL (≈ 81.6 µM) | 16 µg/mL (≈ 81.6 µM) | 16 µg/mL (≈ 81.6 µM) | 16 µg/mL (≈ 81.6 µM) | 16 µg/mL (≈ 81.6 µM) | 16 µg/mL (≈ 81.6 µM) | 16 | MIC (growth inhibition, microdilution method) ([9]; S. aureus ATCC 29213): >32 µg/mL; MIC, P. MIRABILIS [18]: 16 µg/mL (≈ 81.6 µM); MIC, S. MALTOPHILIA [19]: 16 µg/mL (≈ 81.6 µM); MIC, A. BAUMANII [20]: 16 µg/mL (≈ 81.6 µM); MIC, M. MORGANII [21]: 16 µg/mL (≈ 81.6 µM); MIC, K. PNEUMONIAE [22]: 16 µg/mL (≈ 81.6 µM); MIC, P. RETTGERI [23]: 16 µg/mL (≈ 81.6 µM); MIC, C. KOSERI [24]: 16 µg/mL (≈ 81.6 µM); MIC, B. CEPACIA [26]: 16 µg/mL (≈ 81.6 µM); MIC, P. STUARTII [27]: 16 µg/mL (≈ 81.6 µM); MIC, E. CLOACAE [28]: 16 µg/mL (≈ 81.6 µM); MIC, K. OXYTOCA [29]: 16 µg/mL (≈ 81.6 µM)
2 | Cn1nnc(-c2cc(C(=O)O)sc2-c2ccc(F)cc2)n1 [DNM-123, 5-(4-fluorophenyl)-4-(2-methyl-2H-tetrazol-5-yl)thiophene-2-carboxylic acid] | > 8 µg/mL | > 8 µg/mL | 8 µg/mL (≈ 26.3 µM) | 8 µg/mL (≈ 26.3 µM) | 8 µg/mL (≈ 26.3 µM) | > 8 µg/mL | 8 µg/mL (≈ 26.3 µM) | 8 µg/mL (≈ 26.3 µM) | ≤ 0.5 µg/mL | 8 µg/mL (≈ 26.3 µM) | > 8 µg/mL | 8 µg/mL (≈ 26.3 µM) | 4 µg/mL (≈ 13.1 µM) | > 8 µg/mL | > 8 µg/mL | – | – | – | – | 8 | MIC (growth inhibition, microdilution method) ([6]; E. faecalis ATCC 29212): 8 µg/mL (≈ 26.3 µM); MIC (growth inhibition, microdilution method) ([6]; E. faecalis, ATCC number not given): 8 µg/mL (≈ 26.3 µM)
3 | CCOC(=O)c1cc(-c2nnn[nH]2)c(-c2ccc(F)cc2)s1 [DNM-124, 5-(4-Fluoro-phenyl)-4-(1H-tetrazol-5-yl)-thiophene-2-carboxylic acid ethyl ester] | > 64 µg/mL | > 64 µg/mL | – | > 64 µg/mL | > 64 µg/mL | > 64 µg/mL | > 64 µg/mL | > 64 µg/mL | 64 µg/mL (≈ 201 µM) | > 64 µg/mL | > 64 µg/mL | > 64 µg/mL | 64 µg/mL (≈ 201 µM) | > 64 µg/mL | > 64 µg/mL | > 64 µg/mL | > 64 µg/mL | > 64 µg/mL | > 64 µg/mL | >64 | MIC, P. MIRABILIS [18]: > 64 µg/mL; MIC, S. MALTOPHILIA [19]: > 64 µg/mL; MIC, P. VULGARIS [30]: > 64 µg/mL; MIC, M. MORGANII [21]: > 64 µg/mL; MIC, K. PNEUMONIAE [22]: > 64 µg/mL; MIC, E. COLI [31]: > 64 µg/mL; MIC, P. RETTGERI [23]: > 64 µg/mL; MIC, C. KOSERI [24]: > 64 µg/mL; MIC, E. CLOACAE [28]: > 64 µg/mL; MIC, K. OXYTOCA [29]: > 64 µg/mL

Reference: patent publication US8835476B2, “Synthesis of novel antimicrobials” (priority 2005, dated 2014)
